According to patent US10654832B2, “3-(benzoimidazol-2-YL)-indazole inhibitors of the Wnt signaling pathway and therapeutic uses thereof” (Samumed, LLC, priority 2013, dated 2020):

Tested on: Wnt activity (wnt-responsive SP5 promoter luciferase reporter in SW480 cells)
Assay: Wnt activity reporter assay (SP5 promoter-firefly luciferase in SW480 cells)
Type: cell-based
Conditions: Homo sapiens; SW480 colon cancer cells with SP5 promoter luciferase reporter; 24 h after compound addition; half-log dilutions, three micromolar top concentration; normalized to DMSO; read-out: Wnt inhibition
Excerpt: The above synthesized compounds were screened using the assay procedure for Wnt activity described below.
Reporter cell lines were generated by stably transducing cells of cancer cell lines (e.g., colon cancer) with a lentiviral construct that include a wnt-responsive promoter driving expression of the firefly luciferase gene.
Lentiviral constructs were made in which the SP5 promoter, a promoter having eight TCF/LEF binding sites derived from the SP5 promoter, was linked upstream of the firefly luciferase gene. The lentiviral constructs included a hygromycin resistance gene as a selectable marker. The SP5 promoter construct was used to transduce SW480 cells, a colon cancer cell line having a mutated APC gene that generates a truncated APC protein, leading to de-regulated accumulation of β-catenin.
Cultured SW480 cells bearing a reporter construct were distributed at approximately 10,000 cells per well into 384 well multiwell plates. Compounds were then added to the wells in half-log dilutions using a three micromolar top concentration. A series of control wells for each cell type received only buffer and compound solvent. Twenty-four hours after the addition of compound, reporter activity for luciferases was assayed, for example, by addition of the BrightGlo luminescence reagent (Promega) and the Victor3 plate reader (Perkin Elmer). Readings were normalized to DMSO only treated cells, and normalized activities were then used for the IC50 calculations.

| SMILES | IC50 [nM] |
| --- | --- |
| Fc1ccccc1-c1cccc2[nH]c(-c3n[nH]c4ccc(-c5cncc(CNCC6CCCC6)c5)cc34)nc12 [Compound 72, 1-Cyclopentyl-N-((5-(3-(4-(2-fluorophenyl)-1H-benzo[d]imidazol-2-yl)-1H-indazol-5-yl)pyridin-3-yl)methyl)methanamine] | 1140 |
| O=C(Nc1cncc(-c2ccc3[nH]nc(-c4nc5c(-c6ccncc6)cccc5[nH]4)c3c2)c1)C1CCCCC1 [Compound 118, N-(5-(3-(4-(Pyridin-4-yl)-1H-benzo[d]imidazol-2-yl)-1H-indazol-5-yl)pyridin-3-yl)cyclohexanecarboxamide] | 1460 |
| c1ccc(-c2cccc3[nH]c(-c4n[nH]c5ccc(-c6cncc(CNCC7CCCC7)c6)cc45)nc23)nc1 [Compound 144, 1-Cyclopentyl-N-((5-(3-(4-(pyridin-2-yl)-1H-benzo[d]imidazol-2-yl)-1H-indazol-5-yl)pyridin-3-yl)methyl)methanamine] | 1180 |
| O=C(Nc1cncc(-c2ccc3[nH]nc(-c4nc5c(-c6ccccc6F)cccc5[nH]4)c3c2)c1)c1ccccc1 [Compound 59, N-(5-(3-(4-(2-Fluorophenyl)-1H-benzo[d]imidazol-2-yl)-1H-indazol-5-yl)pyridin-3-yl)benzamide] | 332 |
| CN(C)c1cncc(-c2ccc3[nH]nc(-c4nc5c(-c6ccccn6)cccc5[nH]4)c3c2)c1 [Compound 127, N,N-Dimethyl-5-(3-(4-(pyridin-2-yl)-1H-benzo[d]imidazol-2-yl)-1H-indazol-5-yl)pyridin-3-amine] | 32 |
| O=C(Nc1cncc(-c2ccc3[nH]nc(-c4nc5c(-c6cccc(F)c6)cccc5[nH]4)c3c2)c1)C1CCCC1 [Compound 21, N-(5-(3-(4-(3-Fluorophenyl)-1H-benzo[d]imidazol-2-yl)-1H-indazol-5-yl)pyridin-3-yl)cyclopentanecarboxamide] | 50 |
| O=C(Nc1cncc(-c2ccc3[nH]nc(-c4nc5c(-c6ccccc6F)cccc5[nH]4)c3c2)c1)C1CCCC1 [Compound 69, N-(5-(3-(4-(2-Fluorophenyl)-1H-benzo[d]imidazol-2-yl)-1H-indazol-5-yl)pyridin-3-yl)cyclopentanecarboxamide] | 23 |
| O=C(Nc1cncc(-c2ccc3[nH]nc(-c4nc5c(-c6ccc(F)cc6)cccc5[nH]4)c3c2)c1)C1CC1 [Compound 43, N-(5-(3-(4-(4-Fluorophenyl)-1H-benzo[d]imidazol-2-yl)-1H-indazol-5-yl)pyridin-3-yl)cyclopropanecarboxamide] | 43 |
| CC(C)(C)CC(=O)Nc1cncc(-c2ccc3[nH]nc(-c4nc5ccccc5[nH]4)c3c2)c1 [Compound 232, N-(5-(3-(1H-Benzo[d]imidazol-2-yl)-1H-indazol-5-yl)pyridin-3-yl)-3,3-dimethylbutanamide] | 65 |
| O=C(Nc1cncc(-c2ccc3[nH]nc(-c4nc5c(-c6cccc(F)c6)cccc5[nH]4)c3c2)c1)C1CC1 [Compound 19, N-(5-(3-(4-(3-Fluorophenyl)-1H-benzo[d]imidazol-2-yl)-1H-indazol-5-yl)pyridin-3-yl)cyclopropanecarboxamide] | 5 |
| CC(C)Nc1cncc(-c2ccc3[nH]nc(-c4nc5c(-c6cccnc6)cccc5[nH]4)c3c2)c1 [Compound 84, N-Isopropyl-5-(3-(4-(pyridin-3-yl)-1H-benzo[d]imidazol-2-yl)-1H-indazol-5-yl)pyridin-3-amine] | 13 |
| CC(C)CC(=O)Nc1cncc(-c2ccc3[nH]nc(-c4nc5c(-c6ccc(F)cc6)cccc5[nH]4)c3c2)c1 [Compound 26, N-(5-(3-(4-(4-Fluorophenyl)-1H-benzo[d]imidazol-2-yl)-1H-indazol-5-yl)pyridin-3-yl)-3-methylbutanamide] | 179 |
| CCCCC(=O)Nc1cncc(-c2ccc3[nH]nc(-c4nc5ccccc5[nH]4)c3c2)c1 [Compound 234, N-(5-(3-(1H-Benzo[d]imidazol-2-yl)-1H-indazol-5-yl)pyridin-3-yl) pentanamide] | 123 |
| CC(C)CC(=O)Nc1cncc(-c2ccc3[nH]nc(-c4nc5c(-c6ccccn6)cccc5[nH]4)c3c2)c1 [Compound 122, 3-Methyl-N-(5-(3-(4-(pyridin-2-yl)-1H-benzo[d]imidazol-2-yl)-1H-indazol-5-yl)pyridin-3-yl)butanamide] | 11 |
| CC(C)(C)C(=O)Nc1cncc(-c2ccc3[nH]nc(-c4nc5c(-c6ccoc6)cccc5[nH]4)c3c2)c1 [Compound 272, N-(5-(3-(4-(Furan-3-yl)-1H-benzo[d]imidazol-2-yl)-1H-indazol-5-yl)pyridin-3-yl)pivalamide] | 159 |
| CN(C)Cc1cncc(-c2ccc3[nH]nc(-c4nc5c(-c6cccc(F)c6)cccc5[nH]4)c3c2)c1 [Compound 13, 1-(5-(3-(4-(3-Fluorophenyl)-1H-benzo[d]imidazol-2-yl)-1H-indazol-5-yl)pyridin-3-yl)-N,N-dimethylmethanamine] | 11 |
| Cc1cn(-c2cccc3[nH]c(-c4n[nH]c5ccc(-c6cncc(CNCc7ccccc7)c6)cc45)nc23)cn1 [Compound 191, N-Benzyl-1-(5-(3-(4-(4-methyl-1H-imidazol-1-yl)-1H-benzo[d]imidazol-2-yl)-1H-indazol-5-yl)pyridin-3-yl)methanamine] | 138 |
| CCC(=O)Nc1cncc(-c2ccc3[nH]nc(-c4nc5c(-c6cccc(F)c6)cccc5[nH]4)c3c2)c1 [Compound 1, N-(5-(3-(4-(3-Fluorophenyl)-1H-benzo[d]imidazol-2-yl)-1H-indazol-5-yl)pyridin-3-yl)propionamide] | 2 |
| CN1CCN(c2cccc3[nH]c(-c4n[nH]c5ccc(-c6cncc(NC(=O)Cc7ccccc7)c6)cc45)nc23)CC1 [Compound 202, N-(5-(3-(4-(4-methylpiperazin-1-yl)-1H-benzo[d]imidazol-2-yl)-1H-indazol-5-yl)pyridin-3-yl)-2-phenylacetamide] | 248 |
| CC(C)C(=O)Nc1cncc(-c2ccc3[nH]nc(-c4nc5c(-c6cccc(F)c6)cccc5[nH]4)c3c2)c1 [Compound 9, N-(5-(3-(4-(3-Fluorophenyl)-1H-benzo[d]imidazol-2-yl)-1H-indazol-5-yl)pyridin-3-yl)isobutyramide] | 250 |
| c1cc(-c2ccsc2)c2nc(-c3n[nH]c4ccc(-c5cncc(CN6CCCC6)c5)cc34)[nH]c2c1 [Compound 254, 5-(5-(Pyrrolidin-1-ylmethyl)pyridin-3-yl)-3-(4-(thiophen-3-yl)-1H-benzo[d]imidazol-2-yl)-1H-indazole] | 2 |
| Nc1cncc(-c2ccc3[nH]nc(-c4nc5c(-c6ccoc6)cccc5[nH]4)c3c2)c1 [Compound 267, 5-(3-(4-(Furan-3-yl)-1H-benzo[d]imidazol-2-yl)-1H-indazol-5-yl) pyridin-3-amine] | ≥ 4150 |
| Cc1cn(-c2cccc3[nH]c(-c4n[nH]c5ccc(-c6cncc(NC(=O)CC(C)(C)C)c6)cc45)nc23)cn1 [Compound 184, 3,3-Dimethyl-N-(5-(3-(4-(4-methyl-1H-imidazol-1-yl)-1H-benzo[d]imidazol-2-yl)-1H-indazol-5-yl)pyridin-3-yl)butanamide] | 115 |
| Cc1ccncc1-c1ccc2[nH]nc(-c3nc4c(N5CCN(C)CC5)cccc4[nH]3)c2c1 [Compound 197, 3-(4-(4-Methylpiperazin-1-yl)-1H-benzo[d]imidazol-2-yl)-5-(4-methylpyridin-3-yl)-1H-indazole] | 249 |
